Experimental data published in the supplement of paper PMC10307832.

Assays:
Test in all cases: relative viability (nuclei count vs DMSO), 5 days (fraction); higher = more cells survive
NCI-H1944 = test system: NCI-H1944
Summary of the method: (§1)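 For relative viability, nuclei counts in treated wells were divided by those in vehicle wells. Lung cancer cell lines had been pin-tool dosed in 1536-well plates the day after seeding and cultured for 5 days, then fixed and stained in one step (final 0.05% Triton X-100, 1% formaldehyde, 1 ug/ml Hoechst) and imaged at 4×. Doses were one drug alone or a fixed anchor-drug dose plus five library-drug doses (not always all listed) in √10 steps, and values are duplicate-plate medians.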

NCI-H2023 = test system: NCI-H2023
Summary of the method: as §1

NCI-H2087 = test system: NCI-H2087
Summary of the method: as §1

NCI-H441 = test system: NCI-H441
Summary of the method: as §1

NCI-H460 = test system: NCI-H460
Summary of the method: as §1

NCI-H520 = test system: NCI-H520
Summary of the method: as §1

NCI-H596 = test system: NCI-H596
Summary of the method: as §1

NCI-H650 = test system: NCI-H650
Summary of the method: as §1

NCI-H661 = test system: NCI-H661
Summary of the method: as §1

NCI-H727 = test system: NCI-H727
Summary of the method: as §1

PC-3 [JPC-3] = test system: PC-3 [JPC-3]
Summary of the method: as §1

`CCN(CC)CCCCNc1ncc2cc(-c3cc(OC)cc(OC)c3)c(NC(=O)NC(C)(C)C)nc2n1` + CC(=O)Nc1cccc(-n2c(=O)n(C3CC3)c(=O)c3c(Nc4ccc(I)cc4F)n(C)c(=O)c(C)c32)c1 [Trametinib] (partner 0.02 µM) gave a relative viability (NCI-H1944; first compound 0.1 µM) of 0.403, a relative viability (NCI-H1944; first compound 0.3162 µM) of 0.416 and a relative viability (NCI-H1944; first compound 1 µM) of 0.401. The relative viability (NCI-H2023; first compound 0.01 µM) was 0.662, the relative viability (NCI-H2023; first compound 0.03162 µM) was 0.551 and the relative viability (NCI-H2023; first compound 0.1 µM) was 0.624. The relative viability (NCI-H2023; first compound 0.3162 µM) was 0.629, the relative viability (NCI-H2023; first compound 1 µM) was 0.447 and the relative viability (NCI-H2087; first compound 0.01 µM) was 0.202. The relative viability (NCI-H2087; first compound 0.03162 µM) was 0.171, the relative viability (NCI-H2087; first compound 0.1 µM) was 0.217 and the relative viability (NCI-H2087; first compound 0.3162 µM) was 0.189. It also gave a relative viability (NCI-H2087; first compound 1 µM) of 0.209, a relative viability (NCI-H441; first compound 0.01 µM) of 0.545 and a relative viability (NCI-H441; first compound 0.03162 µM) of 0.506. It also gave a relative viability (NCI-H441; first compound 0.1 µM) of 0.489, a relative viability (NCI-H441; first compound 0.3162 µM) of 0.529 and a relative viability (NCI-H441; first compound 1 µM) of 0.408. It also gave a relative viability (NCI-H460; first compound 0.01 µM) of 0.127, a relative viability (NCI-H460; first compound 0.03162 µM) of 0.208 and a relative viability (NCI-H460; first compound 0.1 µM) of 0.153. For the same molecule, the relative viability (NCI-H460; first compound 0.3162 µM) was 0.124, the relative viability (NCI-H460; first compound 1 µM) was 0.062 and the relative viability (NCI-H520; first compound 0.01 µM) was 0.684. The relative viability (NCI-H520; first compound 0.03162 µM) was 0.538, the relative viability (NCI-H520; first compound 0.1 µM) was 0.722 and the relative viability (NCI-H520; first compound 0.3162 µM) was 0.287. It also gave a relative viability (NCI-H520; first compound 1 µM) of 0.216, a relative viability (NCI-H596; first compound 0.01 µM) of 0.865 and a relative viability (NCI-H596; first compound 0.03162 µM) of 0.879. The relative viability (NCI-H596; first compound 0.1 µM) was 0.677, the relative viability (NCI-H596; first compound 0.3162 µM) was 0.778 and the relative viability (NCI-H596; first compound 1 µM) was 0.646. For the same molecule, the relative viability (NCI-H650; first compound 0.01 µM) was 1.03, the relative viability (NCI-H650; first compound 0.03162 µM) was 1.01 and the relative viability (NCI-H650; first compound 0.1 µM) was 0.962. It also gave a relative viability (NCI-H650; first compound 0.3162 µM) of 1.07, a relative viability (NCI-H650; first compound 1 µM) of 0.925 and a relative viability (NCI-H661; first compound 0.01 µM) of 0.592. It also gave a relative viability (NCI-H661; first compound 0.03162 µM) of 0.589, a relative viability (NCI-H661; first compound 0.1 µM) of 0.569 and a relative viability (NCI-H661; first compound 0.3162 µM) of 0.563. For the same molecule, the relative viability (NCI-H661; first compound 1 µM) was 0.473, the relative viability (NCI-H727; first compound 0.01 µM) was 0.387 and the relative viability (NCI-H727; first compound 0.03162 µM) was 0.412. For the same molecule, the relative viability (NCI-H727; first compound 0.1 µM) was 0.369, the relative viability (NCI-H727; first compound 0.3162 µM) was 0.362 and the relative viability (NCI-H727; first compound 1 µM) was 0.362. The relative viability (PC-3 [JPC-3]; first compound 0.03162 µM) was 0.698, the relative viability (PC-3 [JPC-3]; first compound 0.1 µM) was 0.766 and the relative viability (PC-3 [JPC-3]; first compound 0.3162 µM) was 0.72. It also gave a relative viability (PC-3 [JPC-3]; first compound 1 µM) of 0.683.
